Like-named read-outs stand apart in the source and are kept apart here.
Assays:
[1] = tested on: NHBE cells; test: cells; assay type: cell-based, human
[2] = tested on: CA09; test: microbe, parasite or virus in culture; assay type: cell-based, influenza virus H1N1 strain A/CA/04/2009; conditions: for log reduction at 10 pM / log reduction at 0.0001 µM / log reduction at 0.001 µM / log reduction at 0.01 µM / log reduction at 0.1 µM / log reduction at 1 µM / log reduction at 10 µM / log reduction at 100 µM: NHBE, read-out: TCID50 (per mL); for Viral Titer Therapeutic: follow up validation titer, therapeutic treatment
[3] = tested on: NHBE cells; test: Biolog metabolic array: substrate use by NHBE cells with or without CA09 infection; assay type: cell-based, human
[4] = read-out: IC50, Prophylactic Treatment, Control
[5] = read-out: IC50, Prophylactic Treatment, Viral Infected
[6] = […], dose response 4 nM to 10 μM, […], read-out: IC50, Therapeutic Treatment, Viral Infected
[7] = […], prophylactic schedule, dose response 4 nM to 10 μM, […], read-out: IC50, Prophylactic Treatment, Control
[8] = […], therapeutic schedule, dose response 4 nM to 10 μM, […], read-out: IC50, Therapeutic Treatment, Control
[9] = Homo sapiens, NHBE, 72 h, […], prophylactic schedule, dose response 4 nM to 10 μM, […], read-out: IC50, Prophylactic Treatment, Control
[10] = […], dose response 4 nM to 10 μM, […], read-out: IC50, Prophylactic Treatment, Viral Infected
[11] = Control (uninfected) NHBE cells
[12] = Virus (CA09-infected, MOI 1) NHBE cells
[13] = Virus: CA09-infected NHBE cells, MOI 1, Biolog PMM2

Molecule: NOCC(=O)O
- IC50 [1, 4]: 5000 nM
- IC50 [1, 5]: 10000 nM

Molecule: O=C([O-])CC(O)C(=O)[O-].[Na+].[Na+] (racemic) [DISODIUM DL-MALATE HYDRATE]
- IC50 [1, 6]: 7000 nM
- IC50 [1, 7]: 30 nM

Molecule: O=[N+]([O-])c1ccc(O)c([N+](=O)[O-])c1 [2,4-DINITROPHENOL]
- IC50 [1, 6]: 4000 nM
- IC50 [1, 7]: 380 nM
- IC50 [1, 8]: 8000 nM

Molecule: N#C/C(=C\c1ccc(O)cc1)C(=O)O [ALPHA-CYANO-4-HYDROXYCINNAMIC ACID]
- IC50 [1, 7]: 3000 nM

Molecule: CC(C)c1c(C(=O)Nc2ccccc2)c(-c2ccccc2)c(-c2ccc(F)cc2)n1CC[C@@H](O)C[C@@H](O)CC(=O)O [ATORVASTATIN CALCIUM]
- IC50 [1, 4]: 3000 nM
- IC50 [1, 5]: 3000 nM

Molecule: Cc1cc([C@@H](C)Nc2ccccc2C(=O)O)c2nc(N3CCOCC3)cc(=O)n2c1 [AZD-6482]
- IC50 [1, 9]: 5000 nM

Molecule: CC(C)(Oc1ccc(CCNC(=O)c2ccc(Cl)cc2)cc1)C(=O)O [BEZAFIBRATE]
- IC50 [1, 9]: 7200 nM

Molecule: CC(C)CCN1c2nc(Nc3cc(F)c(O)c(F)c3)ncc2N(C)C(=O)C1C (centres unmarked) [BI-D1870]
- Cell Death Prophylactic [1]: C > V
- Viral Titer Prophylactic [2]: Reduced
- log reduction at 10 pM [2]: 0.28
- log reduction at 0.0001 µM [2]: 1.18
- log reduction at 0.001 µM [2]: 0.78
- log reduction at 0.01 µM [2]: 0.2
- log reduction at 0.1 µM [2]: 0.99
- log reduction at 1 µM [2]: 0.84
- log reduction at 10 µM [2]: 0.6
- log reduction at 100 µM [2]: 0.65

Molecule: OO.OO.[K+].[OH-].[V].c1cnc2c(c1)ccc1cccnc12 [BPV(PHEN)]
- IC50 [1, 8]: 5 nM

Molecule: C=C1C(=O)O[C@H](CCCCCCCC)[C@H]1C(=O)O [C75]
- Cell Death Prophylactic [1]: C > V
- Cell Death Therapeutic [1]: C = V

Molecule: COc1cc(/C=C/C(=O)CC(=O)/C=C/c2ccc(O)c(OC)c2)ccc1O [CURCUMIN]
- IC50 [1, 9]: 1 nM

Molecule: O=C(CO)[C@@H](O)[C@@H](O)[C@H](O)[C@H](O)CO [D-mannoheptulose]
- log reduction at 10 pM [2]: 0
- log reduction at 0.0001 µM [2]: 0.76
- log reduction at 0.001 µM [2]: 0.56
- log reduction at 0.01 µM [2]: 0
- log reduction at 0.1 µM [2]: 0.25
- log reduction at 1 µM [2]: 0.88
- log reduction at 10 µM [2]: 0.4
- log reduction at 100 µM [2]: -0.03

Molecule: CSCC[C@H](NC(=O)[C@H](Cc1ccccc1)NC[C@@H](NC[C@@H](N)CS)C(C)C)C(=O)O [FTASE INHIBITOR I]
- IC50 [1, 6]: 200 nM
- IC50 [1, 8]: 90 nM

Molecule: CC(C)n1c(/C=C/C(O)CC(O)CC(=O)O)c(-c2ccc(F)cc2)c2ccccc21 (centres unmarked) [Fluvastatin]
- log reduction at 10 pM ([2]; Therapeutic Drug Treatment, Drug Dose 10 pM, […]): 0.16
- log reduction at 0.0001 µM ([2]; Therapeutic Drug Treatment, Drug Dose 100 pM, […]): 0.5
- log reduction at 0.001 µM ([2]; Therapeutic Drug Treatment, Drug Dose 1 nM, […]): 0.18
- log reduction at 0.01 µM ([2]; Therapeutic Drug Treatment, Drug Dose 10 nM, […]): 0.34
- log reduction at 0.1 µM ([2]; Therapeutic Drug Treatment, Drug Dose 100 nM, […]): 0.15
- log reduction at 1 µM ([2]; Therapeutic Drug Treatment, Drug Dose 1 μM, […]): 0.51
- log reduction at 10 µM ([2]; Therapeutic Drug Treatment, Drug Dose 10 μM, […]): 0.75
- log reduction at 100 µM ([2]; Therapeutic Drug Treatment, Drug Dose 100 μM, […]): -0.33

Molecule: CS(=O)(=O)N1CCN(Cc2cc3nc(-c4cccc5[nH]ncc45)nc(N4CCOCC4)c3s2)CC1 [GDC-0941]
- Cell Death Prophylactic [1]: C = V
- Cell Death Therapeutic [1]: C = V
- NHBE cell survival / cell death after infection [1]: no effect

Molecule: O=C1Nc2ccc3ncsc3c2/C1=C/c1cnc[nH]1 [IMIDAZOLO-OXINDOLE PKR INHIBITOR C16]
- IC50 [1, 8]: 70 nM

Molecule: O=C(O)c1nn(Cc2ccc(Cl)cc2Cl)c2ccccc12 [Lonidamine]
- log reduction at 10 pM [2]: 0.94
- log reduction at 0.0001 µM [2]: 0.54
- log reduction at 0.001 µM [2]: 0.54
- log reduction at 0.01 µM [2]: 0.67
- log reduction at 0.1 µM [2]: 0.24
- log reduction at 1 µM [2]: 0.24
- log reduction at 10 µM [2]: 0.18
- log reduction at 100 µM [2]: 0.65

Molecule: O=C(O)Cn1nnc(-c2cc(N3CCC(Oc4cc(F)ccc4Br)CC3)no2)n1 [MK-8245]
- IC50 [1, 9]: 5000 nM

Molecule: CO/C(=C\C(N)=O)[C@H](C)[C@H](/C=C/c1csc(-c2csc([C@@H](C)/C=C/C=C/C(C)C)n2)n1)OC [Myxothiazol]
- Cell Death Prophylactic [1]: C = V
- Cell Death Therapeutic [1]: C > V

Molecule: COc1ccc(Cc2nnc(NS(=O)(=O)c3ccccc3)s2)cc1 [OU749]
- log reduction at 10 pM [2]: 0
- log reduction at 0.0001 µM [2]: 0.65
- log reduction at 0.01 µM [2]: 0.35
- log reduction at 10 µM [2]: 0.46
- Viral Titer Therapeutic [2]: Reduced

Molecule: CCn1nnc2c(N3CCOCC3)nc(-c3ccc(NC(=O)Nc4ccc(C(=O)N5CCN(C)CC5)cc4)cc3)nc21 [PKI-402]
- Cell Death Prophylactic [1]: C = V
- Cell Death Therapeutic [1]: C = V
- NHBE cell survival / cell death after infection [1]: no effect
- IC50 [1, 10]: 3000 nM
- IC50 [1, 8]: 2 nM

Molecule: CC(C)c1nc(N(C)S(C)(=O)=O)nc(-c2ccc(F)cc2)c1/C=C/[C@@H](O)C[C@@H](O)CC(=O)O [Rosuvastatin]
- log reduction at 10 pM [2]: 0
- log reduction at 0.0001 µM [2]: 0.15
- log reduction at 0.001 µM [2]: 0.76
- log reduction at 0.01 µM [2]: 0.66
- log reduction at 0.1 µM [2]: 0.41
- log reduction at 1 µM [2]: 1
- log reduction at 10 µM [2]: 0.79
- log reduction at 100 µM [2]: 0.64
- Viral Titer Therapeutic [2]: Reduced

Molecule: CCC(C)(C)C(=O)O[C@H]1C[C@@H](C)C=C2C=C[C@H](C)[C@H](CC[C@@H]3C[C@@H](O)CC(=O)O3)[C@H]21 [SIMVASTATIN]
- IC50 ([1]; Homo sapiens, NHBE, 72 h, […], therapeutic schedule, dose response 4 nM to 10 μM, […], read-out: IC50, Therapeutic Treatment, Control): 5 nM

Molecule: CCCCCCCCCCCCCCOc1ccc(C(=O)O)o1 [TOFA]
- IC50 [1, 7]: 4000 nM

Molecule: LB 42708
- IC50 [1, 8]: 4.5 nM

Molecule: OLIGOMYCIN (A SHOWN)
- IC50 ([1]; read-out: IC50, Therapeutic Treatment, Control): 1000 nM
- IC50 ([1]; read-out: IC50, Therapeutic Treatment, Viral Infected): 4 nM

Molecule: PF 429242
- IC50 [1, 10]: 6000 nM

Molecule: Pectin
- 590 nm absorbance normalized to zero hour (substrate use), 0 hr [3, 11]: 1.00
- 590 nm absorbance normalized to zero hour (substrate use), 1 hr [3, 11]: 3.40
- 590 nm absorbance normalized to zero hour (substrate use), 2 hr [3, 11]: 1.82
- 590 nm absorbance normalized to zero hour (substrate use), 3 hr [3, 11]: 1.76
- 590 nm absorbance normalized to zero hour (substrate use), 4 hr [3, 11]: 1.72
- 590 nm absorbance normalized to zero hour (substrate use), 6 hr [3, 11]: 2.65
- 590 nm absorbance normalized to zero hour (substrate use), 8 hr [3, 11]: 0.95
- 590 nm absorbance normalized to zero hour (substrate use), 9 hr [3, 11]: 1.44
- 590 nm absorbance normalized to zero hour (substrate use), 10 hr [3, 11]: 1.37
- 590 nm absorbance normalized to zero hour (substrate use), 11 hr [3, 11]: 0.91
- Substrate use, 590 nm absorbance normalized to zero hour, 0 hr ([3]; Control (uninfected) NHBE cells, Biolog PMM2, 0 hr): 1.00
- Substrate use, 590 nm absorbance normalized to zero hour, 1 hr ([3]; Control (uninfected) NHBE cells, Biolog PMM2, 1 hr): 3.40
- Substrate use, 590 nm absorbance normalized to zero hour, 5 hr ([3]; Control (uninfected) NHBE cells, Biolog PMM2, 5 hr): 1.45
- Substrate use, 590 nm absorbance normalized to zero hour, 7 hr ([3]; Control (uninfected) NHBE cells, Biolog PMM2, 7 hr): 1.44
- 590 nm absorbance normalized to zero hour (substrate use), 0 hr [3, 12]: 1.00
- 590 nm absorbance normalized to zero hour (substrate use), 1 hr [3, 12]: 3.25
- 590 nm absorbance normalized to zero hour (substrate use), 2 hr [3, 12]: 2.85
- 590 nm absorbance normalized to zero hour (substrate use), 3 hr [3, 12]: 0.75
- 590 nm absorbance normalized to zero hour (substrate use), 4 hr [3, 12]: 0.80
- 590 nm absorbance normalized to zero hour (substrate use), 5 hr [3, 12]: 0.91
- 590 nm absorbance normalized to zero hour (substrate use), 6 hr [3, 12]: 0.95
- 590 nm absorbance normalized to zero hour (substrate use), 7 hr [3, 12]: 1.00
- 590 nm absorbance normalized to zero hour (substrate use), 8 hr [3, 12]: 1.05
- 590 nm absorbance normalized to zero hour (substrate use), 9 hr [3, 12]: 1.15
- 590 nm absorbance normalized to zero hour (substrate use), 10 hr [3, 12]: 1.17
- 590 nm absorbance normalized to zero hour (substrate use), 11 hr [3, 12]: 1.27
- 590 nm absorbance normalized to zero hour (substrate use), 0 hr [3, 13]: 1.00
- 590 nm absorbance normalized to zero hour (substrate use), 1 hr [3, 13]: 3.25
- 590 nm absorbance normalized to zero hour (substrate use), 2 hr [3, 13]: 2.85
- 590 nm absorbance normalized to zero hour (substrate use), 3 hr [3, 13]: 0.75
- 590 nm absorbance normalized to zero hour (substrate use), 4 hr [3, 13]: 0.80
- 590 nm absorbance normalized to zero hour (substrate use), 5 hr [3, 13]: 0.91
- 590 nm absorbance normalized to zero hour (substrate use), 6 hr [3, 13]: 0.95
- 590 nm absorbance normalized to zero hour (substrate use), 7 hr [3, 13]: 1.00
- 590 nm absorbance normalized to zero hour (substrate use), 8 hr [3, 13]: 1.05
- 590 nm absorbance normalized to zero hour (substrate use), 9 hr [3, 13]: 1.15
- 590 nm absorbance normalized to zero hour (substrate use), 10 hr [3, 13]: 1.17
- 590 nm absorbance normalized to zero hour (substrate use), 11 hr [3, 13]: 1.27

From patent publication US11083725B2 (priority 2014, dated 2021)
